Results published in paper PMC9851200, “Multiparameter phenotypic screening for endogenous TFEB and TFE3 translocation identifies novel chemical series modulating lysosome function” (Autophagy, 2022).
“Also recorded” adds a separate entry of the source. Like-named read-outs stand apart in the source and are kept apart here.

What was measured:
endogenous TFEB = assay: TFEB nuclear translocation, immunocytochemistry high-content imaging; format: cell-based
SH-SY5Y cells [1] = test system: SH-SY5Y cells
Source text: The PKIS2 Library was supplied by The Structural Genomics Consortium at the University of North Carolina at Chapel Hill.

endogenous TFE3 = assay: TFE3 nuclear translocation, immunocytochemistry high-content imaging; format: cell-based
SH-SY5Y cells [2] = settings: human
SH-SY5Y cells [3] = settings: human; remark: listed apart in the source
Procedure: (§1) Total cell lysis with 5 µL 5% Triton-X 100 (Sigma-Aldrich, T8787) is used as a positive control for the assay and toxicity is expressed as a percentage of luminescence under DMSO conditions.

SH-SY5Y cells [4] = assay: Nuclear count from microscopy images (cellular growth and toxicity); settings: PKIS2 primary screening
SH-SY5Y cells [5] = assay: AK (adenylate kinase) release ToxiLight cytotoxicity assay; settings: for AK: PKIS2 primary screening
Procedure: as §1

SH-SY5Y cells [6] = assay: Chemotype enrichment analysis of PKIS2 primary screen hit categories; settings: PKIS2 primary screening, hit category
[7] = PKIS2 primary screening, DQ Red BSA intensity
[8] = PKIS2 primary screening, DQ Red BSA spot count

Row | Structure (SMILES) | TFEB % (endogenous TFEB) | DQ Intensity (SH-SY5Y cells [1]) | DQ Spot (SH-SY5Y cells [1]) | TFE3 % (endogenous TFE3) | TFEB % (endogenous TFEB; PKIS2 primary screening) | DQ Intensity (SH-SY5Y cells [1]; PKIS2 primary screening) | DQ Spot (SH-SY5Y cells [1]; PKIS2 primary screening) | TFE3 % (endogenous TFE3; PKIS2 primary screening) | Nuclear Count (SH-SY5Y cells [2]) | AK (SH-SY5Y cells [5]) | DQ Intensity (SH-SY5Y cells [1]; [7]) | DQ Spot (SH-SY5Y cells [1]; [8]) | Outcome (SH-SY5Y cells [6]) | other results
1 | CC(=O)Nc1n[nH]c2ncc(-c3ccccc3)cc12 [SB-548492] | 4.73% | 81.01 | 101.49 | 13.46% | – | – | – | – | – | – | – | – | – | Nuclear Count (SH-SY5Y cells [2]; SH-SY5Y cells, 24 h, 1 µM): 87.30; AK (SH-SY5Y cells [3]; SH-SY5Y cells, 24 h, 1 µM): 85.75
2 | CCCC(=O)Nc1n[nH]c2ncccc12 [SB-601436] | 6.83% | 119.21 | 109.95 | 11.89% | – | – | – | – | – | – | – | – | – | Nuclear Count (SH-SY5Y cells [2]; SH-SY5Y cells, 24 h, 1 µM): 111.13; AK (SH-SY5Y cells [3]; SH-SY5Y cells, 24 h, 1 µM): 122.64
3 | Nc1n[nH]c2cnc(-c3ccccc3)cc12 [SB-642124] | 10.03% | 94.71 | 98.20 | 5.79% | – | – | – | – | – | – | – | – | – | Nuclear Count (SH-SY5Y cells [2]; SH-SY5Y cells, 24 h, 1 µM): 121.57; AK (SH-SY5Y cells [3]; SH-SY5Y cells, 24 h, 1 µM): 86.32
4 | O=c1cc(N2CCOCC2)nc2n(Cc3cccc(Cl)c3Cl)ccn12 [UNC10225167A] | – | – | – | – | 3.69% | 91.40 | 112.20 | 15.96% | – | – | – | – | – | Nuclear Count (SH-SY5Y cells [4]): 101.24; AK (SH-SY5Y cells [3]): 151.05
5 | CN(C)CC(O)COc1ccc(Nc2nccc(-c3cnn4nc(N5CCOCC5)ccc34)n2)cc1 (centres unmarked) [UNC10225197A] | 3.40% | 107.33 | 110.97 | 12.57% | – | – | – | – | 103.35 | 142.32 | – | – | – | –
6 | CC(C)(CN)c1nc(-c2ccc(Cl)c(O)c2)c(-c2ccncc2)[nH]1.O=C(O)C(F)(F)F [UNC10225206A] | – | – | – | – | 8.68% | – | – | 7.79% | 76.70 | 94.20 | 164.60 | 127.42 | DQ Only | –
7 | CC(C)(CN)c1nc(-c2ccc(Cl)c(O)c2)c(-c2ccncc2)[nH]1.O=C(O)C(F)(F)F [UNC10225206B] | – | – | – | – | 5.00% | – | – | 3.59% | 109.20 | 116.08 | 150.27 | 119.19 | DQ Only | –
8 | CCCCc1nn2ncccc2c1-c1ccnc(NC2CC2)n1 [UNC10225247A] | – | – | – | – | 2.59% | 77.25 | 98.14 | 6.63% | 77.00 | 99.47 | – | – | – | –
9 | CC(C)Oc1ccc2c(-c3ccnc(Nc4ccc(N5CCN(C)CC5)cc4)n3)cnn2n1 [UNC10225414A] | – | – | – | – | 3.20% | 74.33 | 86.73 | 8.69% | 127.68 | 109.44 | – | – | – | –
10 | CCCCc1nn2ncccc2c1-c1ccnc(Nc2ccc(N3CCN(C)CC3)cc2)n1 [UNC10225453A] | – | – | – | – | 12.73% | 158.78 | 101.42 | 20.14% | 74.87 | 108.81 | – | – | – | –
11 | CN1CCN(Cc2cccc(-c3ccc4c(Nc5ccc(Oc6ccccc6)cc5)ccnc4c3)c2)CC1 [UNC10225484A, reference compound] | – | – | – | – | 9.01% | – | – | 42.01% | – | 84.86 | 129.44 | 68.80 | LYSO TOXIC | TFEB translocation (in words) (endogenous TFEB; SH-SY5Y, 24 h treatment): some TFEB and TFE3 translocation; also recorded: modest TFEB and 3 translocation at 2 µM; DQ Red BSA spot count / active lysosome count (in words) (SH-SY5Y cells [1]; SH-SY5Y, 24 h treatment): reduction in active lysosome spots; also recorded: correlated drop in DQ Red BSA spot count; Nuclear Count (SH-SY5Y cells [4]): 88.62; TFE3 translocation (in words) (endogenous TFE3; SH-SY5Y, 24 h treatment): some TFEB and TFE3 translocation; also recorded: modest TFEB and 3 translocation at 2 µM; Cellular toxicity (AK release and nuclear count, in words) (SH-SY5Y cells [5]; SH-SY5Y, 24 h treatment): no indication of cellular toxicity
12 | COc1cc2ncnc(Nc3ccc4nc(-c5ccccc5)[nH]c4c3)c2cc1OC.Cl [UNC10225504A] | – | – | – | – | 2.24% | – | – | 30.79% | – | 94.98 | 98.46 | 113.89 | TFE3 | Nuclear Count (SH-SY5Y cells [4]): 107.73
